From ChEMBL document CHEMBL6153034, “Synthesis of dolutegravir derivatives modified by 1,2,3-triazole structure and their anti-inflammatory activity in LPS-induced BV2 cells” (Bioorg Med Chem Lett, 2025)

Tests used:
BV-2 [1] = assay: Antiinflammatory activity in LPS induced mouse BV-2 cells assessed as NO production at 10 uM by Griess reagent based assay relative to control
BV-2 [2] = assay: Antiinflammatory activity in LPS induced mouse BV-2 cells assessed as NO production at 1 uM by Griess reagent based assay relative to control
[3] = Cytotoxicity against mouse BV-2 cells assessed as cell viability at 10 uM by MTT assay relative to control; format: toxicity, cell-based; conditions: read-out: Activity
[4] = Cytotoxicity against mouse BV-2 cells assessed as cell viability at 1 uM by MTT assay relative to control; format: toxicity, cell-based; conditions: read-out: Activity

| Structure (SMILES) | level, % of control at 10 µM (BV-2 [1]) [%] | level, % of control at 1 µM (BV-2 [2]) [%] | viability at 10 µM [3] [%] | viability at 1 µM [4] [%] |
| --- | --- | --- | --- | --- |
| COc1c2n(cc(C(=O)Nc3ccc(-c4cn(-c5ccccc5F)nn4)cc3)c1=O)C[C@@H]1OCC[C@@H](C)N1C2=O | 87.2 | 98.5 | 83 | 101 |
| CCc1ccccc1-n1cc(-c2ccccc2NC(=O)c2cn3c(c(OC)c2=O)C(=O)N2[C@H](C)CCO[C@H]2C3)nn1 | 76.3 | 86.7 | 94.7 | 111 |
| COc1c2n(cc(C(=O)Nc3cccc(-c4cn(-c5cccc(C(F)(F)F)c5)nn4)c3)c1=O)C[C@@H]1OCC[C@@H](C)N1C2=O | 2.3 | 99.2 | 16.2 | 47.1 |
| COc1c2n(cc(C(=O)Nc3cccc(-c4cn(-c5ccc(F)cc5)nn4)c3)c1=O)C[C@@H]1OCC[C@@H](C)N1C2=O | 77 | 76.6 | 69.2 | 111 |
| CCc1ccccc1-n1cc(-c2cccc(NC(=O)c3cn4c(c(OC)c3=O)C(=O)N3[C@@H](C)CO[C@@H]3C4)c2)nn1 | 102 | 107 | 46.1 | 99.3 |
| COc1c2n(cc(C(=O)Nc3cccc(-c4cn(-c5ccccc5C(F)(F)F)nn4)c3)c1=O)C[C@@H]1OCC[C@@H](C)N1C2=O | 3.88 | 91.5 | 22.8 | 60.6 |
| COc1c2n(cc(C(=O)Nc3ccc(-c4cn(-c5ccccc5Cl)nn4)cc3)c1=O)C[C@@H]1OCC[C@@H](C)N1C2=O | 79.6 | 98.8 | 102 | 100 |
| COc1c2n(cc(C(=O)Nc3cccc(-c4cn(-c5ccc(C(F)(F)F)cc5)nn4)c3)c1=O)C[C@@H]1OCC[C@@H](C)N1C2=O | 48.3 | 83.7 | 56.3 | 71.5 |
| COc1c2n(cc(C(=O)Nc3ccc(-c4cn(-c5cccc(C(F)(F)F)c5)nn4)cc3)c1=O)C[C@@H]1OCC[C@@H](C)N1C2=O | 90.5 | 96.8 | 73.8 | 105 |
| COc1c2n(cc(C(=O)Nc3ccc(-c4cn(-c5ccc(C(F)(F)F)cc5)nn4)cc3)c1=O)C[C@@H]1OCC[C@@H](C)N1C2=O | 76.2 | 77.9 | 45.2 | 53.1 |
| C[C@@H]1CCO[C@H]2Cn3cc(C(=O)NCc4ccc(F)cc4F)c(=O)c(O)c3C(=O)N12 [DOLUTEGRAVIR] | 51.2 | 96 | 77.6 | 97.5 |
| COc1c2n(cc(C(=O)Nc3cccc(-c4cn(-c5ccccc5)nn4)c3)c1=O)C[C@@H]1OCC[C@@H](C)N1C2=O | 77.3 | 78.6 | 62.3 | 104 |
| COc1c2n(cc(C(=O)Nc3ccc(-c4cn(-c5ccccc5I)nn4)cc3)c1=O)C[C@@H]1OCC[C@@H](C)N1C2=O | 106 | 98.2 | 98.2 | 110 |
| COc1c2n(cc(C(=O)Nc3cccc(-c4cn(-c5ccccc5F)nn4)c3)c1=O)C[C@H]1OC[C@H](C)N1C2=O | 88.7 | 97.9 | 63.8 | 91.9 |
| COc1ccccc1-n1cc(-c2ccc(NC(=O)c3cn4c(c(OC)c3=O)C(=O)N3[C@H](C)CCO[C@H]3C4)cc2)nn1 | 107 | 108 | 81.6 | 108 |
| COc1c2n(cc(C(=O)Nc3ccccc3-c3cn(-c4ccccc4I)nn3)c1=O)C[C@@H]1OCC[C@@H](C)N1C2=O | 56.3 | 107 | 65.8 | 96.7 |
| COc1c2n(cc(C(=O)Nc3ccccc3-c3cn(-c4c(C)cc(C)cc4C)nn3)c1=O)C[C@@H]1OCC[C@@H](C)N1C2=O | 59.1 | 81.4 | 113 | 107 |
| COc1c2n(cc(C(=O)Nc3ccc(-c4cn(-c5ccccc5C(F)(F)F)nn4)cc3)c1=O)C[C@@H]1OCC[C@@H](C)N1C2=O | 91.1 | 109 | 103 | 103 |
| COc1c2n(cc(C(=O)Nc3cccc(-c4cn(-c5ccc(F)cc5)nn4)c3)c1=O)C[C@H]1OC[C@H](C)N1C2=O | 120 | 129 | 68 | 109 |
